Data reported in patent US10154992B2, “Compounds and methods for treating HIV infection” (THE REGENTS OF THE UNIVERSITY OF CALIFORNIA, priority 2016, dated 2018).

Target: T1, Rev-RRE IIB interaction (Human immunodeficiency virus type 1 group M subtype B, UniProt P04608+P04618)
T1 construct: with a fusion to HIV Rev (residues 3-70) was generated; expressed in transfected cells
Format: cell-based, HIV
Experimental: A library of approximately 4500 carboxamide-containing compounds was assembled and tested in the reporter cell line at 30 μM. Reporter cells were plated in a white 96-well plate and compounds were added to the cells using a Biomek FX robotic liquid handler (Beckman Coulter). The cells were incubated with the compound for 48 hours then assayed for luciferase activity (Promega Bright Glo). The cytotoxicity of each compound was determined in parallel via MTT-based cell viability assays.
(§1) Cells were counted and plated into white 384-well or 96-well cell-culture treated assay plates and compounds were added. After 48 hours, the cells were prepared for luminescence assays that were performed on a plate reader (Tecan Evolution or MD Analyst). The cytotoxicity of each compound was determined in parallel via MTT-based cell viability assays.
as §1, with “Tat hybrid reporter assay. […] Previously characterized thienopyridines and diaminoacridine were used as controls. Cells” for “Cells”, “384-well” for “384-well or 96-well”, “lumincescence” for “luminescence”
The RRE IIB-Rev screening cell line was plated in 384-well assay plates and compounds were added to the cells to a final concentration of 30 μM. Cells were prepared and assayed for luciferase activity. […] In parallel, MTT cell viability assays were performed to assess the toxicity of compounds and minimize the level of false positives.

T1 sequence (P04608 whole entry, looked up, the tested form may be a part): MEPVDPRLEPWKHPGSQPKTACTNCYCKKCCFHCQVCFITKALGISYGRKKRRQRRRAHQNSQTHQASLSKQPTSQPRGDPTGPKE
T1 sequence (P04618 whole entry, looked up, the tested form may be a part): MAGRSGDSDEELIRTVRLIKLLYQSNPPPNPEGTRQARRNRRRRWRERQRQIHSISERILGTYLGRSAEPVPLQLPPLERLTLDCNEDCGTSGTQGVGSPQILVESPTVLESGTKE

## NC(=O)c1cc2c(-c3ccc4c(c3)CCO4)cncc2s1 [Compound 4e, 4-(2,3-dihydro-1-benzofuran-5-yl)thieno[2,3-c]pyridine-2-carboxamide]
  activity in the Tat-hybrid reporter assay: low-nM potency
